From the Deep4Chem optical property database come the findings set out here.

The data set can be described thus: solvent given as SMILES.

`CCCCN(CCCC)c1ccc(/C=C/c2ccc3nc(/C=C/c4ccc(N(C)C)cc4)c(-c4ccccc4)nc3c2)cc1` showed an emission maximum (in C1COCCO1) of 549 nm, an emission maximum (in CC#N) of 661 nm and an emission maximum (in ClCCl) of 615 nm.

With `CN(C)c1ccc(/C=C/c2cnc3ccccc3n2)cc1`, the emission maximum runs as follows: (in C1CCOC1) 556 nm; (in CC#N) 611 nm; (in CCCCCCC) 468 nm; (in CS(C)=O) 622 nm; (in ClCCl) 570 nm.

As to `CCC1=C(C)C2=C(C)c3c(C)c(-c4csc(N5CCOCC5)n4)c(C)n3[B-](F)(F)[N+]2=C1C`, the emission maximum (in C1CCOC1) amounted to 618 nm; the emission maximum (in C1COCCO1) is reported as 606 nm; the emission maximum (in CC#N) is 543 nm; the emission maximum (in CC(C)O) came out at 538 nm; the emission maximum (in CCO) is reported as 539 nm; the emission maximum (in CCOC(C)=O) is recorded as 549 nm. The emission maximum reads like this: (in CN(C)C=O) 539 nm; (in CO) 540 nm; (in CS(C)=O) 539 nm; (in Cc1ccccc1) 597 nm; (in ClC(Cl)Cl) 603 nm; (in ClCCl) 537 nm.

The compound `Cn1ccc(=O)n(C)c1=O` registered an emission maximum (in CC#N) of 308 nm.

Take `Cc1cccn2c1cc1c3ccccc3nc(-c3cccs3)c12`: where the note is “in CS(C)=O”, the emission maximum was 514 nm.

In the case of `CC1=CC(C)=[N+]2C1=C(c1ccc(C)cc1)c1c(C)cc(/C=C/c3ccc4ccc5cccc6ccc3c4c56)n1[B-]2(F)F`, the emission maximum (in CC1CCCO1) stood at 618 nm.

Compound `COC(=O)C1=C(C(=O)OC)C2(c3ccccc3-c3ccc([N+](=O)[O-])cc32)C2(/C=C/c3ccccc3)c3cc(OC)c(OC)cc3CCN12` (centres undefined) returned an emission maximum (in ClCCl) of 510 nm.

For the compound `c1ccc(-c2nc(-c3ccccc3)nc(-n3c4ccccc4c4cccc(-n5c6ccccc6c6ccccc65)c43)n2)cc1`, the emission maximum by setting is: (in C1CCOC1) 477.86 nm; (in Cc1ccccc1) 459.26 nm.

Compound `Clc1cc(Cl)c(B2c3ccccc3Nc3ccccc32)c(Cl)c1` showed an emission maximum (in ClCCl) of 413 nm.

For `CC(C)[Si](C#Cc1c2cc3ccccc3cc2c(C#C[Si](C(C)C)(C(C)C)C(C)C)c2nc3ccccc3nc12)(C(C)C)C(C)C`, the emission maximum is, setting by setting: (in CCCCCC) 699 nm; (in ClCCl) 738 nm.

The compound `CN(C)c1ccc(C#Cc2cc(C#Cc3ccc(C(F)(F)F)cc3)c3ccc4c(C#Cc5ccc(C(F)(F)F)cc5)cc(C#Cc5ccc(N(C)C)cc5)c5ccc2c3c54)cc1` gave an emission maximum (in ClCCl) of 608 nm.

As to `Oc1ccc2ccccc2c1/C=N/c1cc2nc3ccccc3nc2cc1/N=C/c1c(O)ccc2ccccc12`, under “in CC#N”, the emission maximum is listed as 525 nm.

`CN1C(=CC2=C([O-])C(=CC3=[N+](C)c4ccccc4C3(C)C)C2=C(C#N)C#N)C(C)(C)c2ccccc21`: where the note is “in ClC(Cl)Cl”, the emission maximum came to 700 nm.

Where the note is “in ClCCl”, `CN(C)c1ccc(C2=CC3=C(c4ccc([N+](=O)[O-])cc4)[C@H]4c5ccccc5[C@]3(S2)c2ccccc24)cc1` showed an emission maximum of 625 nm.

In the case of `c1ccc(-c2c3c(c(-c4ccccc4)c4c2-c2ccccc2C4)-c2ccccc2C3)cc1`, under “in C1CCCCC1”, the emission maximum is given as 375 nm.

`c1ccc(/C(=C(\c2ccccc2)c2cc(-c3ccccc3)ccc2-c2ccc(-c3ccccc3)cc2)c2cc(-c3ccccc3)ccc2-c2ccc(-c3ccccc3)cc2)cc1` returned an emission maximum (in C1CCOC1) of 494 nm.

Compound `CC1(C)c2ccccc2N2c3ccccc3C3(c4cc(C#N)ccc4-c4ccc(C#N)cc43)c3cccc1c32` registered an emission maximum (in Cc1ccccc1) of 485.37 nm.

On to `COC(=O)CNC(=O)c1nc2c(N(C)C)nc(N(C)C)nc2n1Cc1ccccc1`, for which the emission maximum is 397 nm (in C1COCCO1), 409 nm (in CC#N), 429 nm (in CO) and 407 nm (in ClCCl).

The compound `C[Si]1(C)O[Si](C)(C)c2cc3cc4c(cc3cc21)C(=O)c1cc2cc3c(cc2cc1C4=O)[Si](C)(C)O[Si]3(C)C` showed an emission maximum (in ClC(Cl)Cl) of 437 nm.

For `Cc1cc(=O)oc2ccc3ccc(O)cc3c12`, the emission maximum (in CC#N) was determined as 429 nm and the emission maximum (in CCO) came out at 450 nm.

The compound `COc1cccc2cc(-c3cc4cccc(OC)c4oc3=O)oc12` gave an emission maximum (in CC#N) of 488 nm; an emission maximum (in CCOC(C)=O) of 460 nm; an emission maximum (in CS(C)=O) of 488 nm; an emission maximum (in Cc1ccccc1) of 448 nm; an emission maximum (in O) of 504 nm.

The compound `Cc1ccc2ccccc2c1` yielded an emission maximum (in C1CCCCC1) of 338.75 nm.

For the compound `CCCCCCCCC1(CCCCCCCC)c2cc(C#CC#Cc3ccc(N(c4ccccc4)c4ccccc4)cc3)ccc2-c2ccc(C=O)cc21`, the emission maximum runs as follows: (in C1CCOC1) 498 nm; (in C1COCCO1) 448 nm; (in CC#N) 525 nm; (in CC(C)=O) 541 nm; (in CCCCCC) 422 nm; (in CCOC(C)=O) 500 nm. The emission maximum turned out to be 523 nm (in CN(C)C=O); 540 nm (in CS(C)=O); 442 nm (in Cc1ccccc1); 500 nm (in ClC(Cl)Cl); 520 nm (in ClCCl).

`O=c1cc[nH]c(=O)[nH]1` registered an emission maximum (in CC#N) of 311 nm.

As for `c1ccc(N(c2ccccc2)c2ccc3ccc4c(N(c5ccccc5)c5ccccc5)ccc5ccc2c3c54)cc1`, the emission maximum reads like this: (in Cc1ccccc1) 458 nm; (in ClCCl) 472 nm.

The compound `N[C@@H](Cn1nnc2cc(-c3ccc(-c4ccsc4)cc3)ccc21)C(=O)O` displayed an emission maximum (in CO) of 384 nm.

As for `COc1ccc([Si](C)(C)C)c2ccccc12`, the emission maximum (in C1CCCCC1) was determined as 327 nm.

For the compound `CN(C)c1ccc(C2=CC3=C(c4ccc(C#N)cc4)[C@H]4c5ccccc5[C@]3(S2)c2ccccc24)cc1`, the emission maximum (in ClCCl) was found to be 599 nm.

As for `Cc1csc2[n+]1[B-](F)(F)OC(c1ccc(N(C)C)cc1)=N2`, the emission maximum runs as follows: (in C1CCOC1) 453 nm; (in CC#N) 466 nm; (in Cc1ccccc1) 437 nm; (in ClCCl) 453 nm.

Regarding `O=S1(=O)c2ccccc2-c2cc(-n3c4ccccc4c4cc(-c5ccc6c(c5)c5ccccc5n6-c5ccccc5)ccc43)ccc21`, the emission maximum (in O=P(c1ccccc1)(c1ccccc1)c1ccccc1Oc1ccccc1P(=O)(c1ccccc1)c1ccccc1) came to 462.73 nm.

`CCCCN1c2ccccc2B(c2ccccc2C(F)(F)F)c2ccccc21`: the emission maximum (in ClCCl) was 401 nm.

Regarding `COC(=O)c1ccc(-c2ccc(-c3nnc(-c4ccc(-c5nnc(-c6ccc(-c7ccc(C(=O)OC)cc7)s6)o5)cc4)o3)s2)cc1`, the emission maximum is, setting by setting: (in C1COCCO1) 400 nm; (in CC#N) 400 nm; (in CC(=O)N(C)C) 417 nm; (in CCCCCCCCCCO) 408 nm; (in CCCCCCCCO) 399 nm; (in CCCCCCO) 389 nm. This compound also gave an emission maximum (in CCCCO) of 394 nm; an emission maximum (in CCO) of 400 nm; an emission maximum (in CS(C)=O) of 420 nm; an emission maximum (in Cc1ccccc1) of 399 nm; an emission maximum (in ClC(Cl)Cl) of 397 nm.

Compound `Clc1ccc(-c2nc3sc4ccccc4c3s2)cc1` had an emission maximum (in CS(C)=O) of 418 nm.

`O=C1C=CC2=Cc3ccccc3B(O)N12`: the emission maximum by setting is: (in CC#N) 412 nm; (in CO) 416 nm; (in CS(C)=O) 430 nm; (in ClC(Cl)Cl) 420 nm.

For the compound `CCN(CC)c1ccc(-c2nc3c(nc2-c2ccc(B(c4c(C)cc(C)cc4C)c4c(C)cc(C)cc4C)cc2)c2ccccc2n3C)cc1`, the emission maximum (in C1CCCCC1) is listed as 462 nm; the emission maximum (in C1CCOC1) is listed as 528 nm; the emission maximum (in CC(C)=O) is given as 544 nm; the emission maximum (in CS(C)=O) is 567 nm; the emission maximum (in Cc1ccccc1) worked out at 493 nm.

In the case of `C[Si]1(C)c2cc(C#Cc3ccccc3)ccc2C=Cc2ccc(C#Cc3ccccc3)cc21`, the emission maximum (in ClCCl) was determined as 407 nm.

As to `CC1(C)c2ccccc2N(c2ccc(-c3ccc4c(c3)c3cc(-c5ccc(N6c7ccccc7C(C)(C)c7ccccc76)cc5)ccc3c3nc(C#N)c(C#N)nc43)cc2)c2ccccc21`, the emission maximum stood at 668.71 nm (in C1COCCO1), 507.36 nm (in CCCCCC), 612 nm (in Cc1ccccc1) and 594 nm (in O=P(c1ccccc1)(c1ccccc1)c1cccc(-c2cc(-n3c4ccccc4c4ccccc43)cc(-n3c4ccccc4c4ccccc43)c2)n1).

For `F[B-]1(F)n2cccc2C=C2c3ccccc3C(c3ccc[nH]3)=[N+]21`, the emission maximum runs as follows: (in C1CCOC1) 596 nm; (in CC#N) 594 nm; (in CCCCCC) 588 nm; (in CO) 592 nm; (in Cc1ccccc1) 600 nm; (in ClCCl) 599 nm.

For the compound `CCC1(CC)c2cc(/C=C/c3cc(C#N)c(/C=C/c4ccc5c(c4)C(CC)(CC)c4cc(N6c7ccccc7Sc7ccccc76)ccc4-5)cc3C#N)ccc2-c2ccc(N3c4ccccc4Sc4ccccc43)cc21`, the emission maximum is, setting by setting: (in C1CCOC1) 514 nm; (in CC#N) 610 nm; (in CCCCCC) 518 nm; (in Cc1ccccc1) 547 nm; (in ClCCl) 520 nm.

For `COc1ccc(C2=C3C(/C=C/c4cc(OC)c(OC)c(OC)c4)=C(C=O)C(C)=[N+]3[B-](F)(F)n3c(C)c(C=O)c(C=Cc4cc(OC)c(OC)c(OC)c4)c32)cc1`, for the setting “in ClCCl”, the emission maximum is 673 nm.

As to `CC(C)(C)c1ccc(-c2ccc3c(-c4ccc(C(C)(C)C)c5ccccc45)cc4c5cc(-c6ccc(C(C)(C)C)c7ccccc67)ccc5c(-c5ccc(C(C)(C)C)c6ccccc56)cc4c3c2)c2ccccc12`, the emission maximum (in ClCCl) is reported as 405 nm.

Take `CCC1(CC)c2ccccc2-c2ccc(C#Cc3ccc4ccc5cccc6ccc3c4c56)cc21`: the emission maximum runs as follows: (in C1CCCCC1) 407 nm; (in C1CCOC1) 410 nm; (in CC#N) 408 nm; (in CCOC(C)=O) 406 nm; (in CN(C)C=O) 412 nm; (in Cc1ccccc1) 412 nm. Further, the emission maximum is recorded as 413 nm (in ClC(Cl)Cl) and 412 nm (in ClCCl).
